In patent publication US9840482B2, “Sulfonamide derivatives and pharmaceutical applications thereof” (Sunshine Lake Pharma Co., Ltd., priority 2014, dated 2017):
pIC50: −log10 of the molar value.

Experiments:
human 5-HT6 receptor = biological target: T1, human 5-HT6 receptor (Homo sapiens, UniProt P50406); assay: Radioligand binding assay ([3H]LSD) on membranes of CHO cells expressing human 5-HT6 receptor; conditions: human 5-HT6 receptor expressed in CHO cell, 2 nM [3H]LSD, 37° C., 120 min
T1 construct: expressed in transfected cells; host or cells: CHO cells (membrane preparation)
T1 sequence (P50406 whole entry): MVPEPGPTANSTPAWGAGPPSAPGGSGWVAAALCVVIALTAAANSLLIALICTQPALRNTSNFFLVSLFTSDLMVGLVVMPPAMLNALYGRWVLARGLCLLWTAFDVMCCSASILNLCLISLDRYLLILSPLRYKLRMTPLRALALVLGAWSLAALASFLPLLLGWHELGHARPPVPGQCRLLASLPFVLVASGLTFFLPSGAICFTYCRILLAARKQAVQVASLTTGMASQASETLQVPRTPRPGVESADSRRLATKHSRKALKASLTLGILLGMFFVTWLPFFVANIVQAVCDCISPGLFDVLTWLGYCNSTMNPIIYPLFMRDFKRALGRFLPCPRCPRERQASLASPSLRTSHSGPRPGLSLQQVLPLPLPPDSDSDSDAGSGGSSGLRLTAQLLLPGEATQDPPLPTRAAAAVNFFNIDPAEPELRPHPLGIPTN
Method: The binding affinities of the compounds of this invention to human 5-HT6 receptor expressed in CHO cell were evaluated by radioligand binding assay in this example. Briefly, for each compound of the present invention, the binding affinity thereof was tested through the following steps:
32 μg membrane proteins of CHO cell expressing human 5-HT6 receptor, 2 nM of radioactive marker [3H]LSD, a compound of the present invention having different test concentrations, 100 μM 5-HT (5-HT was used to eliminate nonspecific binding sites) and a buffer solution were mixed uniformly. Then the resulting mixture was incubated at 37° C. for 120 min, in which the buffer solution was comprised of 50 mM Tris-HC1 (pH 7.4), 10 mM MgCl2, 0.5 mM EDTA, 10 μM pargyline and 20 mg/L protease inhibitor.
After incubation, the resluting mixture was filtered by a fiberglass filter in vacuo (GF/B, Packard), and the filter membrane of the fiberglass filter was preimpregnated with 0.3% PEI before the filtering and washed with 50 mM of Tris-HC1 for several times after the filtering. After the filter membrane was dried, and the radioactivity of filter membrane was determined by liquid scintillation counting by using a scintillometer (Topcount, Packard). The reference standard was 5-HT, and IC50 values were calculated by competitive inhibition curves plotted based on several inhibition ratios and the corresponding compound concentrations.

[1] = Pharmacokinetic evaluation after intravenous or gavage administration to dogs; type: in vivo, Beagle dogs; conditions: by gavage, 5 mg/kg
Method: The LC/MS/MS system for the analysis comprised an Agilent 1200 Series Vacuum Degasser, binary syringe pumps, a well-plate autosampler, a column oven and an Agilent G6430A Triple Quadrupole Mass Spectrometer equiped with an electrospray ionization (ESI) source, Quantitative analysis was performed in the MRM mode and the conversion parameters of MRM were listed in Table 3:
Analysis was performed on waters)(Bridge C18 (2.1×50 mm, […] column, and 5 μL of sample was injected). Conditions of the analysis comprised: a mobile phase consisted of mobile phase A (water, 2 mM ammonium formate and 0.1% formic acid) and mobile phase B (methanol, 2 mM ammonium formate and 0.1% formic acid), the flow rate was 0.4 mL/min, and the conditions of gradient elution were listed in Table 4: […]
In vivo pharmacokinetic assays in dogs of the compounds disclosed herein were performed by the following steps.
Experiments were divided into two groups, one group was performed through intravenous drug delivery, and the other group was performed by gavage. The compounds disclosed herein were administered in form of a saline solution containing 5% DMSO, 5% Kolliphor HS 15, 2% (2% HC1) and 88% Saline, or the solution containing 10% DMSO, 10% Kolliphor HS 15 and 80% physiological saline. […]

| SMILES | pIC50 (human 5-HT6 receptor) | area under the plasma concentration vs time curve (AUClast) [1] |
| --- | --- | --- |
| COc1ccc(S(=O)(=O)NCCc2cccc3ccc(F)cc23)cc1N1CCNCC1 [Example 9] | 9.16 |  |
| COc1ccc(S(=O)(=O)NCC2(c3cccc4cc(F)ccc34)CC2)cc1N1CCNCC1 [Example 25, N-((1-(6-fFluoronaphthalen-1-yl)cyclopropyl)methyl)-4-methoxy-3-(piperazin-1-yl) benzenesulfonamide] | 7.80 |  |
| COc1ccc(S(=O)(=O)NCCc2cccc3ccccc23)cc1N1CCN(C)CC1 [Example 2] | 9.04 |  |
| COc1ccc(S(=O)(=O)NCCc2ccc(OC)c3ccccc23)cc1N1CCNCC1 [Example 33, 4-Methoxy-N-(2-(4-methoxynaphthalen-1-yl)ethyl)-3-(piperazin-1-yl) benzenesulfonamide] | 8.26 |  |
| COc1ccc(S(=O)(=O)NCCc2cccc3ccccc23)cc1N1CCNCC1 [Example 1] | 8.57 |  |
| COc1ccc(S(=O)(=O)NCC2(c3cccc4cc(F)ccc34)CC2)cc1N1CCN(C)CC1 [Example 26, N-((1-(6-Fluoronaphthalen-1-yl)cyclopropyl)methyl)-4-methoxy-3-(4-methylpiperazin-1-yl) benzenesulfonamide] | 8.49 |  |
| COc1ccc(S(=O)(=O)NCCc2cccc3c(OC)cccc23)cc1N1CCNCC1 [Example 3, 4-Methoxy-N-(2-(5-methoxynaphthalen-1-yl)ethyl)-3-(piperazin-1-yl) benzenesulfonamide] | 7.51 |  |
| COc1ccc(S(=O)(=O)NCC(C)(C)c2cccc3ccccc23)cc1N1CCNCC1 [Example 13, 4-Methoxy-N-(2-methyl-2-(naphthalen-1-yl)propyl)-3-(piperazin-1-yl) benzenesulfonamide] | 8.89 | more than 15000 h*ng/mL |
| COc1ccc(S(=O)(=O)NCCc2ccc(F)c3ccccc23)cc1N1CCNCC1 [Example 35] | 8.80 |  |
| COc1ccc(S(=O)(=O)NCC2(c3cccc4ccccc34)CC2)cc1N1CCN(C)CC1 [Example 24, 4-Methoxy-3-(4-methylpiperazin-1-yl)-N-((1-(naphthalen-1-yl)cyclopropyl)methyl) benzenesulfonamide] | 8.70 |  |
| COc1ccc(S(=O)(=O)NCCc2ccc(F)c3ccccc23)cc1N1CCN(C)CC1 [Example 36] | 9.34 |  |
| COc1ccc(S(=O)(=O)NCC(C)(C)c2cccc3ccc(Br)cc23)cc1N1CCN(C)CC1 [Example 22, N-(2-(7-Bromonaphthalen-1-yl)-2-methylpropyl)-4-methoxy-3-(4-methylpiperazin-1-yl) benzenesulfonamide] | 9.51 |  |
| COc1ccc2cccc(CCNS(=O)(=O)c3ccc(OC)c(N4CCNCC4)c3)c2c1 [Example 7, 4-Methoxy-N-(2-(7-methoxynaphthalen-1-yl)ethyl)-3-(piperazin-1-yl) benzenesulfonamide] | 9.00 |  |
| COc1ccc(S(=O)(=O)NCC2(c3cccc4ccc(F)cc34)CC2)cc1N1CCNCC1 [Example 29] | 8.64 |  |
| COc1ccc(S(=O)(=O)NCC(C)(C)c2cccc3cc(F)ccc23)cc1N1CCNCC1 [Example 15, N-(2-(6-fluoronaphthalen-1-yl)-2-methylpropyl)-4-methoxy-3-(piperazin-1-yl)benzene sulfonamide] | 7.96 |  |
| COc1ccc2cccc(C3(CNS(=O)(=O)c4ccc(OC)c(N5CCN(C)CC5)c4)CC3)c2c1 [Example 28, 4-Methoxy-N-((1-(7-methoxynaphthalen-1-yl)cyclopropyl)methyl)-3-(4-methylpiperazin-1-yl) benzenesulfonamide] | 8.68 |  |
| COc1ccc2cccc(CCNS(=O)(=O)c3ccc(OC)c(N4CCN(C)CC4)c3)c2c1 [Example 8] | 9.30 |  |
| COc1ccc2cccc(C3(CNS(=O)(=O)c4ccc(OC)c(N5CCNCC5)c4)CC3)c2c1 [Example 27, 4-Methoxy-N-((1-(7-methoxynaphthalen-1-v1)cyclopropyl)methyl)-3-(piperazin-1-yl) benzenesulfonamide] | 8.30 |  |
| COc1ccc(S(=O)(=O)NCC2(c3cccc4ccc(Br)cc34)CC2)cc1N1CCNCC1 [Example 31] | 8.92 |  |
| COc1ccc(S(=O)(=O)NCCc2cccc3ccc(Br)cc23)cc1N1CCNCC1 [Example 11, N-(2-(7-Bromonaphthalen-1-yl)ethyl)-4-methoxy-3-(piperazin-1-yl) benzenesulfonamide] | 8.68 |  |
| COc1ccc(S(=O)(=O)NCCc2cccc3ccc(Br)cc23)cc1N1CCN(C)CC1 [Example 12, N-(2-(7-Bromonaphthalen-1-yl)ethyl)-4-methoxy-3-(4-methylpiperazin-1-yl) benzene sulfonamide] | 9.77 |  |
| COc1ccc2cccc(C(C)(C)CNS(=O)(=O)c3ccc(OC)c(N4CCNCC4)c3)c2c1 [Example 17, 4-Methoxy-N-(2-(7-methoxynaphthalen-1-yl)-2-methylpropyl)-3-(piperazin-1-yl)benzene sulfonamide] | 8.96 |  |
| COc1ccc(S(=O)(=O)NCC2(c3cccc4ccccc34)CC2)cc1N1CCNCC1 [Example 23, 4-Methoxy-N-((1-(naphthalen-1-yl)cyclopropyl)methyl)-3-(piperazin-1-yl) benzenesulfonamide] | 8.43 |  |
| COc1ccc(S(=O)(=O)NCCc2cccc3ccc(F)cc23)cc1N1CCN(C)CC1 [Example 10] | 9.55 |  |
| COc1ccc(S(=O)(=O)NCCc2cccc3cc(F)ccc23)cc1N1CCNCC1 [Example 5] | 8.39 |  |
| COc1ccc(S(=O)(=O)NCCc2cccc3c(OC)cccc23)cc1N1CCN(C)CC1 [Example 4, 4-Methoxy-N-(2-(5-methoxynaphthalen-1-yl)ethyl)-3-(4-methylpiperazin-1-yl) benzenesulfonamide] | 7.96 |  |
| COc1ccc(S(=O)(=O)NCCc2cccc3cc(F)ccc23)cc1N1CCN(C)CC1 [Example 6] | 8.89 |  |
| COc1ccc2cccc(C(C)(C)CNS(=O)(=O)c3ccc(OC)c(N4CCN(C)CC4)c3)c2c1 [Example 18, 4-Methoxy-N-(2-(7-methoxynaphthalen-1-yl)-2-methylpropyl)-3-(4-methylpiperazin-1-yl) benzenesulfonamide] | 8.85 |  |
| COc1ccc(S(=O)(=O)NCC(C)(C)c2cccc3ccc(Br)cc23)cc1N1CCNCC1 [Example 21, N-(2-(7-Bromonaphthalen-1-yl)-2-methylpropyl)-4-methoxy-3-(piperazin-1-yl) benzenesulfonamide] | 8.77 |  |
| COc1ccc(S(=O)(=O)NCCc2ccc(OC)c3ccccc23)cc1N1CCN(C)CC1 [Example 34] | 8.59 |  |
